In patent US20100267784A1, “NOVEL 4,5-DIHYDROISOXAZOLES WITH ESTROGENIC ACTIVITY” (priority 2007, published 2010):

How the values were obtained:
Assay type in all cases: cell-based
ERα [1] = target: T1, ERα (Homo sapiens, UniProt P03372); test: ERα antagonism reporter (luciferase) assay in transfected COS-1 cells; set-up: expressed in transfected cells; host or cells: COS-1; details: sample concentration 10 μM with 100 nM E2, complete antagonism corresponding to 5.7, 18 hours
T1 sequence (P03372 1-595): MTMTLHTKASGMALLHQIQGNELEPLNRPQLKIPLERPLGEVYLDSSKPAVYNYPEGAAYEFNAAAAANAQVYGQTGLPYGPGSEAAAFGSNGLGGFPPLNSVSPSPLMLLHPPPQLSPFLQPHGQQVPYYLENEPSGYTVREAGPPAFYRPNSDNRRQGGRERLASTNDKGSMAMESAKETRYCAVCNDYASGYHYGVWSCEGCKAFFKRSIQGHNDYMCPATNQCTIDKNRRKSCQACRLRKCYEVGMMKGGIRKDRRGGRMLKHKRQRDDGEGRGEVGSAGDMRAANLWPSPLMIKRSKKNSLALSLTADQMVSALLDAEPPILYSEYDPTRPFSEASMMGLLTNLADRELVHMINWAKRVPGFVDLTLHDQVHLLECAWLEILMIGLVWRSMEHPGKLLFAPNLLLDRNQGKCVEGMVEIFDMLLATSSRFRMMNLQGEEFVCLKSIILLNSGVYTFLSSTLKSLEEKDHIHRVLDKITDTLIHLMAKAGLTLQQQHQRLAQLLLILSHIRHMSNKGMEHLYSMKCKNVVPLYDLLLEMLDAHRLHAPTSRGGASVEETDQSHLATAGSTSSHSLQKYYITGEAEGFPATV
Experimental: Determination of the Antiestrogen Activity of the Compounds.
One day before transfection, COS-1 cells were seeded into 1 ml of DMEM (Dulbecco's modified Eagle medium, Gibco) with 10% delipidated fetal bovine serum and 0,25% (vol/vol) Penicillin-Streptomysin (Euroclone) at a density of 70×10^3 cells/well. […] After transfection, the cells received treatment with test compounds giving a final concentration of 10 μM for each compound. In the antagonist test the wells were also treated with 10^−7 M estradiol. After 18 hours, the cells were washed, lysed and assayed for luciferase and normalization for β-galactosidase activities and protein concentrations. The cells were washed with 100 μl of cold phosphate buffered saline (PBS), lysed with 35 μl 1× Reporter lysis Buffer (Promega) and frosted (−70° C.) for 30 minutes. Cell lysates were placed in 1.5 ml of propylene centrifuge tubes and centrifuged with 13200 g for 5 min in room temperature. For β-galactosidase assay 10 μl of supernatant from each cell extract was transferred to a 96-well plate (96 well Elisa Microplates, PS, Microcon) and incubated for 10 min at 37° C. with 65 μl of reaction mixture consisting 0.76 gl 100×Mg-buffer, 12.5 μl ONPG (4 mg/ml), and 54.3 μl of sodium-phosphate buffer (pH 7). The reaction was stopped with treatment of 125 μl Na2CO3. […] For the study of protein concentrations 5 μl of the supernatant was transferred to a 96-well plate (96 well Elisa Microplates, PS, Microcon) and mixed with 200 μl of 1× Bio-rad protein assay reagent. The luciferase activities were measured with Thermo Luminoscan Ascent scanner and the protein concentrations and β-galactosidase activities with Thermo Labsystem Multiscan Ex scanner. Also blank and control samples were measured. During the maintenance, transfection, and treatment with tested compounds the cells were incubated in humidified atmosphere with 5% carbon dioxide at 37° C.

ERβ = ERβ (Homo sapiens, UniProt Q92731); test: ERβ reporter (luciferase) transactivation assay in transfected HEK293 cells; set-up: expressed in transfected cells; host or cells: HEK293; details: sample concentration 10 μM, 24 hours, mean of at least three independent transfections
Chain of ERβ (Q92731 whole entry): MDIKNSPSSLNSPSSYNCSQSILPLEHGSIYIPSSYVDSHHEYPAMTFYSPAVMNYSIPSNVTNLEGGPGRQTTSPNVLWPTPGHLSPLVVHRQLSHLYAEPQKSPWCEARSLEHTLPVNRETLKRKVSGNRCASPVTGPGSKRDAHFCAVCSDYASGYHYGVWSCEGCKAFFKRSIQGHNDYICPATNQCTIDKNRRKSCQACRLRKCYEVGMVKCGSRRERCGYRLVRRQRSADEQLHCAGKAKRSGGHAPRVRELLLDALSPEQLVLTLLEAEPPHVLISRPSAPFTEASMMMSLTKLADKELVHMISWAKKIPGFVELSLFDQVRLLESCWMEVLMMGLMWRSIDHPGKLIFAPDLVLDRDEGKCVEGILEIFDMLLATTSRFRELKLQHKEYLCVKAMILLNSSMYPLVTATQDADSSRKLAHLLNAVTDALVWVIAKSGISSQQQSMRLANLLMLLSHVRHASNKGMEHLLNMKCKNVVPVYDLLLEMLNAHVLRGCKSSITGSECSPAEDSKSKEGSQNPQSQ
Method in brief: (§1)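 Compounds at 10 μM (or 0.1% vehicle) were applied for 24 hours to HEK293 cells previously transfected with an ERα or ERβ expression plasmid plus ERE-luciferase reporter and β-gal control. Lysate luciferase and β-galactosidase activities were read. Cells were grown in phenol-free, delipidated-serum medium; data are means ±SEM from at least three independent transfections.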

ERα [2] = target: T1, ERα; test: ERα reporter (luciferase) transactivation assay in transfected HEK293 cells; set-up: expressed in transfected cells; host or cells: HEK293; details: sample concentration 10 μM, 24 hours, mean of at least three independent transfections
Method in brief: as §1

| ERα receptor antagonism relative to 100 nM E2 corresponding 100 (ERα [1]) | ERβ receptor activation relative to 10 nM E2 corresponding 100 (ERβ) | ERα receptor activation relative to 10 nM E2 corresponding 100 (ERα [2]) | SMILES |
| --- | --- | --- | --- |
| 132.9 | – | – | Oc1ccc(CCCC2=NOC(Cc3ccccc3)C2)cc1 (centres unmarked) [99ab, 5-Benzyl-3-[3-(4-hydroxy-phenyl)-propyl]-4,5-dihydro-isoxazole] |
| 104.8 | −1.3% | 2.1% | Oc1ccc(CCCC2=NOC(Cc3ccccc3)C2)cc1O (single isomer, unassigned) [102b, 5-Benzyl-3-[3-(3,4-dihydroxy-phenyl)-propyl]-4,5-dihydro-isoxazole] |
| 39.4 | – | – | Oc1ccc(CCCC2=NOC(Cc3ccc(O)cc3)C2)cc1 (centres unmarked) [101ab, 5-(4-Hydroxy-benzyl)-3-[3-(4-hydroxy-phenyl)-propyl]-4,5-dihydro-isoxazole] |
| 87.3 | 0.5% | 21.6% | CC1(c2ccccc2)CC(CCc2cccc(O)c2)=NO1 (single isomer, unassigned) [86a, 3-[2-(3-Hydroxy-phenyl)-ethyl]-5-methyl-5-phenyl-4,5-dihydro-isoxazole] |
| 93.6 | 0.2% | 4.8% | Oc1ccc(CC2=NOC(c3ccccc3)C2)cc1 (single isomer, unassigned) [84a, 3-(4-Hydroxy-benzyl)-5-phenyl-4,5-dihydro-isoxazole] |
| 115.2 | 1.3% | 0.3% | Oc1ccc(CCCC2=NOC(Cc3ccccc3)C2)cc1O (single isomer, unassigned) [102a, 5-Benzyl-3-[3-(3,4-dihydroxy-phenyl)-propyl]-4,5-dihydro-isoxazole] |
| 55.0 | 37.4% | 18.7% | CC1(c2ccccc2)CC(CCc2ccc(O)cc2)=NO1 (single isomer, unassigned) [87b, 3-[2-(4-Hydroxy-phenyl)-ethyl]-5-methyl-5-phenyl-4,5-dihydro-isoxazole] |
| 101.8 | −2.9% | 7.1% | CC1(c2ccccc2)CC(CCc2cccc(O)c2)=NO1 (single isomer, unassigned) [86b, 3-[2-(3-Hydroxy-phenyl)-ethyl]-5-methyl-5-phenyl-4,5-dihydro-isoxazole] |
| 57.9 | 30.0% | 21.7% | CC1(c2ccccc2)CC(CCc2ccccc2O)=NO1 (single isomer, unassigned) [85b, 3-[2-(2-Hydroxy-phenyl)-ethyl]-5-methyl-5-phenyl-4,5-dihydro-isoxazole] |
| 95.6 | −0.4% | 11.8% | CC1(c2ccccc2)CC(CCc2ccccc2O)=NO1 (single isomer, unassigned) [85a, 3-[2-(2-Hydroxy-phenyl)-ethyl]-5-methyl-5-phenyl-4,5-dihydro-isoxazole] |
| 63.1 | 18.0% | 39.7% | CC1(c2ccccc2)CC(CCc2ccc(O)cc2)=NO1 (single isomer, unassigned) [87a, 3-[2-(4-Hydroxy-phenyl)-ethyl]-5-methyl-5-phenyl-4,5-dihydro-isoxazole] |
| 64.5 | 18.5% | 7.6% | Oc1ccc(CC2=NOC(c3ccccc3)C2)cc1 (single isomer, unassigned) [84b, 3-(4-Hydroxy-benzyl)-5-phenyl-4,5-dihydro-isoxazole] |
